Patent publication US7875647B2, “Heteroaryl-pyrazole derivatives as cannabinoid CB1 receptor antagonists” (Green Cross Corporation, priority 2006, dated 2011)

target: T1, Cannabinoid-1 receptor (CB1R) (Rattus norvegicus, UniProt P20272); assay: Cannabinoid-1 receptor (CB1R) binding affinity assay ([3H]CP-55940, rat CB-1 receptor binding protocol); settings: IC50(nM), brain tissue of SD rats, [3H]CP-55940, 30° C. 60 min
T1 construct: The tissue obtained from the brain of SD rats was homogenized; from tissue; host or cells: brain of SD rats (membrane pellet of the homogenate)
T1 sequence (P20272 whole entry): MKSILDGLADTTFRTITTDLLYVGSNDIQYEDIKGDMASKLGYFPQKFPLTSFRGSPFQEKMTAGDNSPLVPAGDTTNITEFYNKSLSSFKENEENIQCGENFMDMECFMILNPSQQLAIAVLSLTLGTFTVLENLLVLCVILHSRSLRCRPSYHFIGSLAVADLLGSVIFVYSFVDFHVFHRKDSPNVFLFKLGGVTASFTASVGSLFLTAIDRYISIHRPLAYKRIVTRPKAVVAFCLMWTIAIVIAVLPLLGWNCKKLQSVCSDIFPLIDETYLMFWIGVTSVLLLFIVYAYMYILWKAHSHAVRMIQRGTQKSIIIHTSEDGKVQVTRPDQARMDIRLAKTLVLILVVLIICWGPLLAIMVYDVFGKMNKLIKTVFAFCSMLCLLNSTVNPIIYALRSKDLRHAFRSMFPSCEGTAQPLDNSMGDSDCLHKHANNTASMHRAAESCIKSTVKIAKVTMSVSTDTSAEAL

SMILES	IC50
C=CCC1(c2nnc(-c3nn(-c4ccc(Cl)cc4Cl)c(-c4ccc(Br)cc4)c3CC)o2)CC1 [Example 259, 2-(1-allylcyclopropyl)-5-(5-(4-bromophenyl)-1-(2,4-dichlorophenyl)-4-ethyl-1H-pyrazol-3-yl)-1,3,4-oxadiazole]	9.57 nM

same assay, conditions: brain tissue of SD rats, [3H]CP-55940, 30° C. 60 min; read-out: IC50

SMILES	IC50
CC(C)(C)c1nnc(-c2nn(-c3ccc(Cl)cc3Cl)c(-c3ccc(Cl)cc3)c2Cn2cccc2)o1 [Example 299, 2-(4-((1H-pyrrol-1-yl)methyl)-5-(4-chlorophenyl)-1-(2,4-dichlorophenyl)-1H-pyrazol-3-yl)-5-tert-butyl-1,3,4-oxadiazole]	38.4 nM
Cc1c(-c2nnc(C3(c4cccc(Cl)c4)CC3)o2)nn(-c2ccc(Cl)cc2Cl)c1-c1ccc(Cl)cc1 [Example 257, 2-(5-(4-chlorophenyl)-1-(2,4-dichlorophenyl)-4-methyl-1H-pyrazol-3-yl)-5-(1-(3-chlorophenyl)cyclopropyl)-1,3,4-oxadiazole]	11.3 nM
CC(C)c1c(-c2nnc(C3(C(F)(F)F)CC3)s2)nn(-c2ccc(Cl)cc2Cl)c1-c1ccc(Cl)cc1 [Example 498, 2-(5-(4-chlorophenyl)-1-(2,4-dichlorophenyl)-4-isopropyl-1H-pyrazol-3-yl)-5-(1-(trifluoromethyl)cyclopropyl)-1,3,4-thiadiazole]	11.4 nM
Cc1c(-c2nnc(CC3CCCCC3)s2)nn(-c2ccc(Cl)cc2Cl)c1-c1ccc(Br)cc1 [Example 387, 2-(5-(4-bromophenyl)-1-(2,4-dichlorophenyl)-4-methyl-1H-pyrazol-3-yl)-5-(cyclohexylmethyl)-1,3,4-thiadiazole]	24.3 nM
CCn1nnnc1-c1nn(-c2ccc(Cl)cc2Cl)c(-c2ccc(Cl)cc2)c1C [Example 569, 5-(5-(4-Chlorophenyl)-1-(2,4-dichlorophenyl)-4-methyl-1H-pyrazol-3-yl)-1-ethyl-1H-tetrazole]	202 nM
Cc1c(-c2nc(C3CC3)n(C)n2)nn(-c2ccc(Cl)cc2Cl)c1-c1ccc(Cl)cc1 [Example 628, 3-(5-(4-chlorophenyl)-1-(2,4-dichlorophenyl)-4-methyl-1H-pyrazol-3-yl)-5-cyclopropyl-1-methyl-1H-1,2,4-triazole]	904 nM
Cc1c(-c2nnc(-c3cccs3)o2)nn(-c2ccc(Cl)cc2Cl)c1-c1ccc(Cl)cc1 [Example 11, 2-(5-(4-chlorophenyl)-1-(2,4-dichlorophenyl)-4-methyl-1H-pyrazol-3-yl)-5-(thiophen-2-yl)-1,3,4-oxadiazole]	96.6 nM
Cc1c(-c2nnc(CC3CC3)s2)nn(-c2ccc(Cl)cc2Cl)c1-c1ccc(Cl)cc1 [Example 370, 2-(5-(4-Chlorophenyl)-1-(2,4-dichlorophenyl)-4-methyl-1H-pyrazol-3-yl)-5-(cyclopropylmethyl)-1,3,4-thiadiazole]	67.7 nM
CC(C)(C)c1nnc(-c2nn(-c3ccc(Cl)cc3Cl)c(-c3ccc(Cl)cc3)c2Br)s1 [Example 541, 2-(4-bromo-5-(4-chlorophenyl)-1-(2,4-dichlorophenyl)-1H-pyrazol-3-yl)-5-tert-butyl-1,3,4-thiadiazole]	23.1 nM
CCn1nc(-c2nn(-c3ccc(Cl)cc3Cl)c(-c3ccc(Cl)cc3)c2C)nc1C(C)C [Example 635, 3-(5-(4-chlorophenyl)-1-(2,4-dichlorophenyl)-4-methyl-1H-pyrazol-3-yl)-5-isopropyl-1-ethyl-1H-1,2,4-triazole]	712 nM
Cc1c(-c2nnc(C(C)C)s2)nn(-c2ccc(Cl)cc2Cl)c1-c1ccc(Cl)cc1 [Example 353, 2-(5-(4-chlorophenyl)-1-(2,4-dichlorophenyl)-4-methyl-1H-pyrazol-3-yl)-5-isopropyl-1,3,4-thiadiazole]	21.5 nM
COc1ccc(C2(c3nnc(-c4nn(-c5ccc(Cl)cc5Cl)c(-c5ccc(Cl)cc5)c4Cn4cncn4)o3)CC2)cc1 [Example 319, 2-(4-((1H-1,2,4-triazol-1-yl)methyl)-5-(4-chlorophenyl)-1-(2,4-dichlorophenyl)-1H-pyrazol-3-yl)-5-(1-(4-methoxyphenyl)cyclopropyl)-1,3,4-oxadiazole]	2.89 nM
Cc1c(-c2ncc(CC(C)C)s2)nn(-c2ccc(Cl)cc2Cl)c1-c1ccc(Cl)cc1 [Example 646, 2-(5-(4-chlorophenyl)-1-(2,4-dichlorophenyl)-4-methyl-1H-pyrazol-3-yl)-5-isobutylthiazole]	112 nM
OCc1c(-c2nnc(C3(c4ccc(Cl)cc4)CC3)o2)nn(-c2ccc(Cl)cc2Cl)c1-c1ccc(Cl)cc1 [Example 201, (5-(4-chlorophenyl)-3-(5-(1-(4-chlorophenyl)cyclopropyl)-1,3,4-oxadiazol-2-yl)-1-(2,4-dichlorophenyl)-1H-pyrazol-4-yl)methanol]	4.02 nM
CCC(C)(C)c1nnc(-c2nn(-c3ccc(Cl)cc3Cl)c(-c3ccc(Cl)cc3)c2Cl)o1 [Example 334, 2-(4-chloro-5-(4-chlorophenyl)-1-(2,4-dichlorophenyl)-1H-pyrazol-3-yl)-5-tert-pentyl-1,3,4-oxadiazole]	51 nM
CCC(C)(C)c1nnc(-c2nn(-c3ccc(Cl)cc3Cl)c(-c3ccc(Cl)cc3)c2Br)s1 [Example 545, 2-(4-bromo-5-(4-chlorophenyl)-1-(2,4-dichlorophenyl)-1H-pyrazol-3-yl)-5-tert-pentyl-1,3,4-thiadiazole]	23.3 nM
CC(O)c1c(-c2nnc(C3(c4ccc(Cl)cc4)CC3)o2)nn(-c2ccc(Cl)cc2Cl)c1-c1ccc(Cl)cc1 (centres unmarked) [Example 209, 1-(5-(4-chlorophenyl)-3-(5-(1-(4-chlorophenyl)cyclopropyl)-1,3,4-oxadiazol-2-yl)-1-(2,4-dichlorophenyl)-1H-pyrazol-4-yl)ethanol]	5.77 nM
Cc1c(-c2nnc(C(C)(C)C3CCCCC3)s2)nn(-c2ccc(Cl)cc2Cl)c1-c1ccc(Cl)cc1 [Example 394, 2-(5-(4-chlorophenyl)-1-(2,4-dichlorophenyl)-4-methyl-1H-pyrazol-3-yl)-5-(2-cyclohexylpropan-2-yl)-1,3,4-thiadiazole]	13.9 nM
Cc1c(-c2nnc(C3CCCO3)s2)nn(-c2ccc(Cl)cc2Cl)c1-c1ccc(Cl)cc1 (centres unmarked) [Example 359, 2-(5-(4-Chlorophenyl)-1-(2,4-dichlorophenyl)-4-methyl-1H-pyrazol-3-yl)-5-(tetrahydrofuran-2-yl)-1,3,4-thiadiazole]	27.6 nM

Continued, values first:

IC50	SMILES
1.91 nM	Clc1ccc(-c2c(Cn3cncn3)c(-c3nnc(C4(c5ccc(Cl)cc5)CCCC4)s3)nn2-c2ccc(Cl)cc2Cl)cc1 [Example 515, 2-(4-((1H-1,2,4-triazol-1-yl)methyl)-5-(4-chlorophenyl)-1-(2,4-dichlorophenyl)-1H-pyrazol-3-yl)-5-(1-(4-chlorophenyl)cyclopentyl)-1,3,4-thiadiazole]
14.5 nM	CCc1c(-c2nnc(C3(C)CCCCC3)s2)nn(-c2ccc(Cl)cc2Cl)c1-c1ccc(Br)cc1 [Example 455, 2-(5-(4-bromophenyl)-1-(2,4-dichlorophenyl)-4-ethyl-1H-pyrazol-3-yl)-5-(1-methylcyclohexyl)-1,3,4-thiadiazole]
5.83 nM	CCc1c(-c2nnc(C3(c4ccc(Cl)cc4Cl)CC3)o2)nn(-c2ccc(Cl)cc2Cl)c1-c1ccc(Cl)cc1 [Example 153, 2-(5-(4-chlorophenyl)-1-(2,4-dichlorophenyl)-4-ethyl-1H-pyrazol-3-yl)-5-(1-(2,4-dichlorophenyl)cyclopropyl)-1,3,4-oxadiazole]
6.47 nM	CC(O)c1c(-c2nnc(C(C)(C)C)s2)nn(-c2ccc(Cl)cc2Cl)c1-c1ccc(Br)cc1 (centres unmarked) [Example 528, 1-(5-(4-bromophenyl)-3-(5-tert-butyl-1,3,4-thiadiazol-2-yl)-1-(2,4-dichlorophenyl)-1H-pyrazol-4-yl)ethanol]
18.5 nM	CCc1c(-c2nnc(C3CCC3)s2)nn(-c2ccc(Cl)cc2Cl)c1-c1ccc(Br)cc1 [Example 375, 2-(5-(4-Bromophenyl)-1-(2,4-dichlorophenyl)-4-ethyl-1H-pyrazol-3-yl)-5-cyclobutyl-1,3,4-thiadiazole]
7.42 nM	CCc1c(-c2nnc(C3(c4ccccc4)CC3)s2)nn(-c2ccc(Cl)cc2Cl)c1-c1ccc(Br)cc1 [Example 450, 2-(5-(4-bromophenyl)-1-(2,4-dichlorophenyl)-4-ethyl-1H-pyrazol-3-yl)-5-(1-phenylcyclopropyl)-1,3,4-thiadiazole]
9.57 nM	CCc1c(-c2nnc(C(C)(C)C)s2)nn(-c2ccc(Cl)cc2Cl)c1-c1ccc(Br)cc1 [Example 377, 2-(5-(4-Bromophenyl)-1-(2,4-dichlorophenyl)-4-ethyl-1H-pyrazol-3-yl)-5-tert-butyl-1,3,4-thiadiazole]
15.5 nM	CCc1c(-c2nnc(C3(c4ccccc4)CCCC3)o2)nn(-c2ccc(Cl)cc2Cl)c1-c1ccc(Br)cc1 [Example 188, 2-(5-(4-bromophenyl)-1-(2,4-dichlorophenyl)-4-ethyl-1H-pyrazol-3-yl)-5-(1-phenylcyclopentyl)-1,3,4-oxadiazole]
2.16 nM	CCc1c(-c2nnc(C3(c4ccc(Cl)cc4)CC3)o2)nn(-c2ccccc2Cl)c1-c1ccc(Cl)cc1 [Example 144, 2-(1-(2-chlorophenyl)-5-(4-chlorophenyl)-4-ethyl-1H-pyrazol-3-yl)-5-(1-(4-chlorophenyl)cyclopropyl)-1,3,4-oxadiazole]
6.66 nM	CCc1c(-c2nnc(C3(Cc4ccc(Cl)cc4)CC3)s2)nn(-c2ccc(Cl)cc2Cl)c1-c1ccc(Br)cc1 [Example 472, 2-(1-(4-chlorobenzyl)cyclopropyl)-5-(5-(4-bromophenyl)-1-(2,4-dichlorophenyl)-4-ethyl-1H-pyrazol-3-yl)-1,3,4-thiadiazole]
21 nM	CCCc1c(-c2nnc(C3(C(F)(F)F)CC3)s2)nn(-c2ccc(Cl)cc2Cl)c1-c1ccc(Cl)cc1 [Example 499, 2-(5-(4-chlorophenyl)-1-(2,4-dichlorophenyl)-4-propyl-1H-pyrazol-3-yl)-5-(1-(trifluoromethyl)cyclopropyl)-1,3,4-thiadiazole]
14.6 nM	CCCC(C)c1nnc(-c2nn(-c3ccc(Cl)cc3Cl)c(-c3ccc(Br)cc3)c2C)s1 (centres unmarked) [Example 413, 2-(5-(4-bromophenyl)-1-(2,4-dichlorophenyl)-4-methyl-1H-pyrazol-3-yl)-5-(pentan-2-yl)-1,3,4-thiadiazole]
